From US7829589B2, “Sulfonamide compounds and uses thereof” (Elixir Pharmaceuticals, Inc., priority 2005, dated 2010)

Target: GHS-R (Homo sapiens, UniProt Q92847)
Test: GHS-R antagonist activity (Ki) in a cell based assay
Method in brief: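 Transfected COS-7 cells were labelled 24 h with [^3H]-myo-inositol and preincubated 30 min at 37 °C in HEPES buffer pH 7.4 with 10 mM LiCl, optionally with 1 U/ml adenosine deaminase. Compound was applied for 45 min at 37 °C. [^3H]-inositol phosphates were extracted with perchloric acid and isolated by anion-exchange resin.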

GHS-R, sequence (Q92847 whole entry, species assumed): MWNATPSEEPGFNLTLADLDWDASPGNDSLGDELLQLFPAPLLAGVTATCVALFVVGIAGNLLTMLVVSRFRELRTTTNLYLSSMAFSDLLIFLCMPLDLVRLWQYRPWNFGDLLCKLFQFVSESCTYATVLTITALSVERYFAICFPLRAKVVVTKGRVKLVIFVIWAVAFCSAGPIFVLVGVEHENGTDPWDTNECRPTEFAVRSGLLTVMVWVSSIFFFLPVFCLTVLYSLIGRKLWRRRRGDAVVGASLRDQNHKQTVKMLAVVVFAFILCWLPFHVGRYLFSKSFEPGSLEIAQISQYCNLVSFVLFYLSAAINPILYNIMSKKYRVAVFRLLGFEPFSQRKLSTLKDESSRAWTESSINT

Row | Structure (SMILES) | Ki
1 | CCN(CC)CCCS(=O)(=O)N[C@H](COCc1ccccc1)c1nc(-c2ccncc2)no1 [Compound 51, 3-Diethylamino-propane-1-sulfonic acid [(R)-2-benzyloxy-1-(3-pyridin-4-yl-[1,2,4]oxadiazol-5-yl)-ethyl]-amide] | ≥ 1000 nM
2 | CCN(CC)CCCS(=O)(=O)N[C@H](CCc1ccccc1)c1nc(-c2c(C)cccc2C)no1 [Compound 52, 3-Diethylamino-propane-1-sulfonic acid {(R)-1-[3-(2,6-dimethyl-phenyl)-[1,2,4]oxadiazol-5-yl]-3-phenyl-propyl}-amide] | 100 to 500 nM
3 | CCN(CC)CCCS(=O)(=O)N[C@H](CCc1ccccc1)c1nc(-c2cccc(Br)c2)n[nH]1 [Compound 53, 3-Diethylamino-propane-1-sulfonic acid {(R)-1-[5-(3-bromo-phenyl)-2H-[1,2,4]triazol-3-yl]-3-phenyl-propyl}-amide] | < 100 nM
4 | CCN(CC)CCS(=O)(=O)N[C@H](CCc1ccccc1)c1nc(-c2cccnc2Cl)no1 [Compound 54, 2-Diethylamino-ethanesulfonic acid {(R)-1-[3-(2-chloro-pyridin-3-yl)-[1,2,4]oxadiazol-5-yl]-3-phenyl-propyl}-amide] | 100 to 500 nM
5 | CCN(CC)CCCS(=O)(=O)N[C@H](CCc1ccccc1)c1nc(Cc2ccc3c(c2)OCO3)no1 [Compound 55, 3-Diethylamino-propane-1-sulfonic acid [(R)-1-(3-benzo[1,3]dioxol-5-ylmethyl-[1,2,4]oxadiazol-5-yl)-3-phenyl-propyl]-amide] | < 100 nM
6 | CCN(CC)CCCS(=O)(=O)N[C@H](CCc1ccccc1)c1nc(Cc2ccc(F)c(F)c2)n[nH]1 [Compound 56, 3-Diethylamino-propane-1-sulfonic acid {(R)-1-[5-(3,4-difluoro-benzyl)-2H-[1,2,4]triazol-3-yl]-3-phenyl-propyl}-amide] | 100 to 500 nM
7 | CCN(CC)CCCS(=O)(=O)N[C@H](CCc1ccccc1)c1nc(-c2ccc(Cl)cc2Cl)n[nH]1 [Compound 58, 3-Diethylamino-propane-1-sulfonic acid {(R)-1-[5-(2,4-dichloro-phenyl)-2H-[1,2,4]triazol-3-yl]-3-phenyl-propyl}-amide] | < 100 nM
8 | CCN(CC)CCCS(=O)(=O)N[C@H](CCc1ccccc1)c1nc(-c2ccc(Br)cc2)no1 [Compound 59, 3-Diethylamino-propane-1-sulfonic acid {(R)-1-[3-(4-bromo-phenyl)-[1,2,4]oxadiazol-5-yl]-3-phenyl-propyl}-amide] | < 100 nM
9 | CCN(CC)CCCS(=O)(=O)N[C@H](CCc1ccccc1)c1nc(CCOC)no1 [Compound 60, 3-Diethylamino-propane-1-sulfonic acid {(R)-1-[3-(2-methoxy-ethyl)-[1,2,4]oxadiazol-5-yl]-3-phenyl-propyl}-amide] | 500 to 1000 nM
10 | CCN(CC)CCCS(=O)(=O)N[C@H](CCc1ccccc1)c1nc(-c2cccc(C)c2)n[nH]1 [Compound 61, 3-Diethylamino-propane-1-sulfonic acid [(R)-3-phenyl-1-(5-m-tolyl-2H-[1,2,4]triazol-3-yl)-propyl]-amide] | < 100 nM
11 | CCN(CC)CCCS(=O)(=O)N[C@H](CCc1ccccc1)c1nc(Cc2cccc(F)c2)no1 [Compound 62, 3-Diethylamino-propane-1-sulfonic acid {(R)-1-[3-(3-fluoro-benzyl)-[1,2,4]oxadiazol-5-yl]-3-phenyl-propyl}-amide] | < 100 nM
12 | CCN(CC)CCCS(=O)(=O)N[C@H](CCc1ccccc1)c1nc(-c2cc(F)ccc2F)n[nH]1 [Compound 63, 3-Diethylamino-propane-1-sulfonic acid {(R)-1-[5-(2,5-difluoro-phenyl)-2H-[1,2,4]triazol-3-yl]-3-phenyl-propyl}-amide] | 100 to 500 nM
13 | CCN(CC)CCCS(=O)(=O)N[C@H](CCc1ccccc1)c1nc(-c2cccc(Br)c2)no1 [Compound 64, 3-Diethylamino-propane-1-sulfonic acid {(R)-1-[3-(3-bromo-phenyl)-[1,2,4]oxadiazol-5-yl]-3-phenyl-propyl}-amide] | < 100 nM
14 | CCN(CC)CCCS(=O)(=O)N[C@H](CCc1ccccc1)c1nc(-c2ccc([N+](=O)[O-])cc2)n[nH]1 [Compound 65, 3-Diethylamino-propane-1-sulfonic acid {(R)-1-[5-(4-nitro-phenyl)-2H-[1,2,4]triazol-3-yl]-3-phenyl-propyl}-amide] | < 100 nM
15 | CCN(CC)CCCS(=O)(=O)N[C@H](CCc1ccccc1)c1nc(-c2ccc(F)cc2)no1 [Compound 66, 3-Diethylamino-propane-1-sulfonic acid {(R)-1-[3-(4-fluoro-phenyl)-[1,2,4]oxadiazol-5-yl]-3-phenyl-propyl}-amide] | < 100 nM
16 | CCN(CC)CCCS(=O)(=O)N[C@H](CCc1ccccc1)c1nc(-c2ccc(Br)cc2C)no1 [Compound 67, 3-Diethylamino-propane-1-sulfonic acid {(R)-1-[3-(4-bromo-2-methyl-phenyl)-[1,2,4]oxadiazol-5-yl]-3-phenyl-propyl}-amide] | 100 to 500 nM
17 | CCN(CC)CCCS(=O)(=O)N[C@H](CCc1ccccc1)c1nc(Cc2ccccc2C)no1 [Compound 68, 3-Diethylamino-propane-1-sulfonic acid {(R)-1-[3-(2-methyl-benzyl)-[1,2,4]oxadiazol-5-yl]-3-phenyl-propyl}-amide] | < 100 nM

Row | Structure (SMILES) | Ki
18 | CCN(CC)CCCS(=O)(=O)N[C@H](CCc1ccccc1)c1nc(-c2ccc(OC)cc2)no1 [Compound 69, 3-Diethylamino-propane-1-sulfonic acid {(R)-1-[3-(4-methoxy-phenyl)-[1,2,4]oxadiazol-5-yl]-3-phenyl-propyl}-amide] | < 100 nM
19 | CCN(CC)CCCS(=O)(=O)N[C@H](CCc1ccccc1)c1nc(-c2cccc(Cl)c2)n[nH]1 [Compound 70, 3-Diethylamino-propane-1-sulfonic acid {(R)-1-[5-(3-chloro-phenyl)-2H-[1,2,4]triazol-3-yl]-3-phenyl-propyl}-amide] | < 100 nM
20 | CCN(CC)CCCS(=O)(=O)N[C@H](CCc1ccccc1)c1nc(-c2ccc(C)cc2)no1 [Compound 71, 3-Diethylamino-propane-1-sulfonic acid [(R)-3-phenyl-1-(3-p-tolyl-[1,2,4]oxadiazol-5-yl)-propyl]-amide] | < 100 nM
21 | CCN(CC)CCCS(=O)(=O)N[C@H](CCc1ccccc1)c1nc(Cc2ccccc2F)no1 [Compound 72, 3-Diethylamino-propane-1-sulfonic acid {(R)-1-[3-(2-fluoro-benzyl)-[1,2,4]oxadiazol-5-yl]-3-phenyl-propyl}-amide] | < 100 nM
22 | CCN(CC)CCCS(=O)(=O)N[C@H](CCc1ccccc1)c1nc(Cc2c(Cl)cccc2Cl)no1 [Compound 73, 3-Diethylamino-propane-1-sulfonic acid {(R)-1-[3-(2,6-dichloro-benzyl)-[1,2,4]oxadiazol-5-yl]-3-phenyl-propyl}-amide] | < 100 nM
23 | CCN(CC)CCCS(=O)(=O)N[C@H](CCc1ccccc1)c1nc(Cc2cccc(Br)c2)no1 [Compound 74, 3-Diethylamino-propane-1-sulfonic acid {(R)-1-[3-(3-bromo-benzyl)-[1,2,4]oxadiazol-5-yl]-3-phenyl-propyl}-amide] | < 100 nM
24 | CCN(CC)CCCS(=O)(=O)N[C@H](CCc1ccccc1)c1nc(Cc2ccccc2Br)no1 [Compound 75, 3-Diethylamino-propane-1-sulfonic acid {(R)-1-[3-(2-bromo-benzyl)-[1,2,4]oxadiazol-5-yl]-3-phenyl-propyl}-amide] | < 100 nM
25 | CCN(CC)CCS(=O)(=O)N[C@H](CCc1ccccc1)c1nc(-c2cccc(Br)c2)no1 [Compound 76, 2-Diethylamino-ethanesulfonic acid {(R)-1-[3-(3-bromo-phenyl)-[1,2,4]oxadiazol-5-yl]-3-phenyl-propyl}-amide] | ≥ 1000 nM
26 | CCN(CC)CCS(=O)(=O)N[C@H](CCc1ccccc1)c1nc(-c2cnccc2C)no1 [Compound 77, 2-Diethylamino-ethanesulfonic acid {(R)-1-[3-(4-methyl-pyridin-3-yl)-[1,2,4]oxadiazol-5-yl]-3-phenyl-propyl}-amide] | ≥ 1000 nM
27 | CCN(CC)CCS(=O)(=O)N[C@H](CCc1ccccc1)c1nc(CCOC)no1 [Compound 78, 2-Diethylamino-ethanesulfonic acid {(R)-1-[3-(2-methoxy-ethyl)-[1,2,4]oxadiazol-5-yl]-3-phenyl-propyl}-amide] | 500 to 1000 nM
28 | CCN(CC)CCS(=O)(=O)N[C@H](CCc1ccccc1)c1nc(-c2ccc(Br)cc2)no1 [Compound 79, 2-Diethylamino-ethanesulfonic acid {(R)-1-[3-(4-bromo-phenyl)-[1,2,4]oxadiazol-5-yl]-3-phenyl-propyl}-amide] | 100 to 500 nM
29 | CCN(CC)CCCS(=O)(=O)N[C@H](CCc1ccccc1)c1nc(-c2ccc(OC)c(OC)c2)n[nH]1 [Compound 80, 3-Diethylamino-propane-1-sulfonic acid {(R)-1-[5-(3,4-dimethoxy-phenyl)-2H-[1,2,4]triazol-3-yl]-3-phenyl-propyl}-amide] | 100 to 500 nM
30 | CCN(CC)CCS(=O)(=O)N[C@H](CCc1ccccc1)c1nc(Cc2ccc3c(c2)OCO3)no1 [Compound 81, 2-Diethylamino-ethanesulfonic acid [(R)-1-(3-benzo[1,3]dioxol-5-ylmethyl-[1,2,4]oxadiazol-5-yl)-3-phenyl-propyl]-amide] | 100 to 500 nM
31 | CCN(CC)CCS(=O)(=O)N[C@H](CCc1ccccc1)c1nc(Cc2cccc(F)c2)no1 [Compound 82, 2-Diethylamino-ethanesulfonic acid {(R)-1-[3-(3-fluoro-benzyl)-[1,2,4]oxadiazol-5-yl]-3-phenyl-propyl}-amide] | < 100 nM
32 | CCN(CC)CCCS(=O)(=O)N[C@H](CCc1ccccc1)c1nc(-c2cnccc2C)no1 [Compound 83, 3-Diethylamino-propane-1-sulfonic acid {(R)-1-[3-(4-methyl-pyridin-3-yl)-[1,2,4]oxadiazol-5-yl]-3-phenyl-propyl}-amide] | 100 to 500 nM
33 | CCN(CC)CCS(=O)(=O)N[C@H](CCc1ccccc1)c1nc(Cc2ccc(Br)cc2)no1 [Compound 84, 2-Diethylamino-ethanesulfonic acid {(R)-1-[3-(4-bromo-benzyl)-[1,2,4]oxadiazol-5-yl]-3-phenyl-propyl}-amide] | 100 to 500 nM
